Experimental data as given in patent US20220402950A1, “SUBSTITUTED BENZIMIDAZOLES AS PAD4 INHIBITORS” (BRISTOL-MYERS SQUIBB COMPANY, priority 2018, published 2022).

biological target: human PAD4 (hPAD4) (Homo sapiens, UniProt Q9UM07); experiment: RFMS Human PAD4 Functional Assay; type: biochemical; conditions: hPAD4 RFMS IC50, human PAD4, rapid-fire mass spectrum (RFMS) assay; 5 nM hPAD4, 250 μM BAEE
Outline: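 RapidFire ESI-MS quantification, normalised to a modified-citrulline internal standard, after phenyl glyoxal (final 4 mM) derivatisation of the TCA-quenched reaction. The enzyme (10 nM) sat 30 min with compound (up to 50 μM final) before 500 μM BAEE (as added) started a 90 min, 37 °C reaction. Buffer: HEPES pH 7.5, 50 μM calcium, 5 μM TPEN.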

Sequence of human PAD4 (hPAD4) (Q9UM07 whole entry): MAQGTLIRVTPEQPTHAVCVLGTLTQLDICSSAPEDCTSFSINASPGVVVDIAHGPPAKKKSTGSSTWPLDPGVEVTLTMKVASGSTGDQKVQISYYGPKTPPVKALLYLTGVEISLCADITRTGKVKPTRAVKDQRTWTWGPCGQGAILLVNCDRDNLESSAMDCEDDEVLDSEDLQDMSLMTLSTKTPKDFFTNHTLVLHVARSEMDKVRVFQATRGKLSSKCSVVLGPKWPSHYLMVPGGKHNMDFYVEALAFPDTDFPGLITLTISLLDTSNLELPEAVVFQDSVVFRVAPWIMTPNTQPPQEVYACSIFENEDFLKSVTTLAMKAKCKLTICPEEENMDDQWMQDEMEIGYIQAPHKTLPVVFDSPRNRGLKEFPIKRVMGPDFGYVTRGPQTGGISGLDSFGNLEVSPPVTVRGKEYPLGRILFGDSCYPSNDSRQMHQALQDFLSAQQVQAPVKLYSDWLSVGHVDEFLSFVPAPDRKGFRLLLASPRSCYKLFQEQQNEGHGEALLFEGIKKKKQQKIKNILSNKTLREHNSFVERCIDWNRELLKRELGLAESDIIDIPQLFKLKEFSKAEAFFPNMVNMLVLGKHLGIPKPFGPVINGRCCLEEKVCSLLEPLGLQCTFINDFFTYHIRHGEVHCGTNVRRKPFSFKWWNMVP

SMILES	IC50
COc1cc(C(=O)N2C[C@H]3CC[C@@H]2[C@@H]3N)cc2nc(-c3cc4cccc(C5CN(C(=O)Cc6ccccc6)C5)c4n3CC3CC3)n(C)c12 [Example 72, 1-[3-(2-{5-[(1R,4R,7R)-7-amino-2-azabicyclo[2.2.1]heptane-2-carbonyl]-7-methoxy-1-methyl-1H-1,3-benzodiazol-2-yl}-1-(cyclopropylmethyl)-1H-indol-7-yl)azetidin-1-yl]-2-phenylethan-1-one]	10 nM
COc1cc(C(=O)N2C[C@H]3CC[C@@H]2[C@@H]3N)cc2nc(-c3cc4cccc(-c5ccc6c(c5)C(=O)NC6)c4n3CC3CC3)n(C)c12 [Example 98, 6-(2-{5-[(1R,4R,7R)-7-amino-2-azabicyclo[2.2.1]heptane-2-carbonyl]-7-methoxy-1-methyl-1H-1,3-benzodiazol-2-yl}-1-(cyclopropylmethyl)-1H-indol-7-yl)-2,3-dihydro-1H-isoindol-1-one]	35 nM
COc1cc(C(=O)N2C[C@H]3CC[C@@H]2[C@@H]3N)cc2nc(-c3cc4cccc(-c5cn[nH]c5)c4n3CC3CC3)n(C)c12 [Example 137, ((1R,4R,7R)-7-amino-2-azabicyclo[2.2.1]heptan-2-yl)(2-(1-(cyclopropylmethyl)-7-(1H-pyrazol-4-yl)-1H-indol-2-yl)-7-methoxy-1-methyl-1H-benzo[d]imidazol-5-yl)methanone]	37 nM
COc1cc(C(=O)N2C[C@H]3CC[C@@H]2[C@@H]3N)cc2nc(-c3cc4cccc(C5CN(C(=O)CC#N)C5)c4n3CC3CC3)n(C)c12 [Example 77, 3-[3-(2-{5-[(1R,4R,7R)-7-amino-2-azabicyclo[2.2.1]heptane-2-carbonyl]-7-methoxy-1-methyl-1H-1,3-benzodiazol-2-yl}-1-(cyclopropylmethyl)-1H-indol-7-yl)azetidin-1-yl]-3-oxopropanenitrile]	38 nM
COc1cc(C(=O)N2CC3CCC2C3N)cc2nc(-c3cc4cccc(Nc5ccccc5P(C)(C)=O)c4n3CC3CC3)n(C)c12 (stereo not shown) [Example 166, (7-amino-2-azabicyclo[2.2.1]heptan-2-yl)(2-(1-(cyclopropylmethyl)-7-((2-(dimethylphosphoryl)phe-nyl)amino)-1H-indol-2-yl)-7-methoxy-1-methyl-1H-benzo[d]imidazol-5-yl)methanone]	171 nM
COc1cc(C(=O)N2C[C@H]3CC[C@@H]2[C@@H]3N)cc2nc(-c3cc4cccc(C5=CCC5)c4n3CC3CC3)n(C)c12 [Example 219, ((1R,4R,7R)-7-amino-2-azabicyclo[2.2.1]heptan-2-yl)(2-(7-(cyclobut-1-en-1-yl)-1-(cyclopropylmethyl)-1H-indol-2-yl)-7-methoxy-1-methyl-1H-benzo[d]imidazol-5-yl)methanone]	52 nM
COc1cc(C(=O)N2CC3CCC2[C@@H]3N)cc2nc(-c3cc4cccc(-c5ccc(NC(C)=O)cc5)c4n3CC3CC3)n(C)c12 (stereo partly drawn) [Example 133, N-(4-(2-(5-((7R)-7-amino-2-azabicyclo[2.2.1]heptane-2-carbonyl)-7-methoxy-1-methyl-1H-benzo[d]imidazol-2-yl)-1-(cyclopropylmethyl)-1H-indol-7-yl)phenyl)acetamide]	121 nM
COc1cc(C(=O)N2C[C@H]3CC[C@@H]2[C@@H]3N)cc2nc(-c3cc4cccc(-c5ccccc5C#N)c4n3CC3CC3C)n(C)c12 (stereo partly drawn) [Example 155, 2-(2-(5-((1R,4R,7R)-7-amino-2-azabicyclo[2.2.1]heptane-2-carbonyl)-7-methoxy-1-methyl-1H-benzo[d]imidazol-2-yl)-1-((2-methylcyclopropyl)meth-yl)-1H-indol-7-yl)benzonitrile]	171 nM
COc1cc(C(=O)N2C[C@H]3CC[C@@H]2[C@@H]3N)cc2nc(-c3cc4cccc(C5CN(C(=O)CCO)C5)c4n3CC3CC3)n(C)c12 [Example 80, 1-[3-(2-{5-[(1R,4R,7R)-7-amino-2-azabicyclo[2.2.1]heptane-2-carbonyl]-7-methoxy-1-methyl-1H-1,3-benzodiazol-2-yl}-1-(cyclopropylmethyl)-1H-indol-7-yl)azetidin-1-yl]-3-hydroxypropan-1-one]	16 nM
COc1cc(C(=O)N2C[C@H]3CC[C@@H]2[C@@H]3N)cc2nc(-c3cc4cccc(CCn5cncn5)c4n3CC3CC3)n(C)c12 [Example 29, (1R,4R,7R)-2-{2-[1-(cyclopropylmethyl)-7-[2-(1H-1,2,4-triazol-1-yl)ethyl]-1H-indol-2-yl]-7-methoxy-1-methyl-1H-1,3-benzodiazole-5-carbonyl}-2-azabicyclo[2.2.1]heptan-7-amine]	56 nM
COCC(=O)N1CC(c2cccc3cc(-c4nc5cc(C(=O)N6C[C@H]7CC[C@@H]6[C@@H]7N)cc(OC)c5n4C)n(CC4CC4)c23)C1 [Example 71, 1-[3-(2-{5-[(1R,4R,7R)-7-amino-2-azabicyclo[2.2.1]heptane-2-carbonyl]-7-methoxy-1-methyl-1H-1,3-benzodiazol-2-yl}-1-(cyclopropylmethyl)-1H-indol-7-yl)azetidin-1-yl]-2-methoxyethan-1-one]	16 nM
COc1cc(C(=O)N2C[C@H]3CC[C@@H]2[C@@H]3N)cc2nc(-c3cc4cccc(-c5ccc(NC(C)=O)nc5)c4n3CC3CC3)n(C)c12 [Example 106, N-[5-(2-{5-[(1R,4R,7R)-7-amino-2-azabicyclo[2.2.1]heptane-2-carbonyl]-7-methoxy-1-methyl-1H-1,3-benzodiazol-2-yl}-1-(cyclopropylmethyl)-1H-indol-7-yl)pyridin-2-yl]acetamide]	61 nM
COc1cc(C(=O)N2C[C@H]3CC[C@@H]2[C@@H]3N)cc2nc(-c3cc4cccc(-c5cn[nH]c5)c4n3CC3CC3(F)F)n(C)c12 (stereo partly drawn) [Example 150, ((1R,4R,7R)-7-amino-2-azabicyclo[2.2.1]heptan-2-yl)(2-(1-((2,2-difluorocyclopropyl)meth-yl)-7-(1H-pyrazol-4-yl)-1H-indol-2-yl)-7-methoxy-1-methyl-1H-benzo[d]imidazol-5-yl)methanone]	46 nM
COC(=O)N1CC(c2cccc3cc(-c4nc5cc(C(=O)N6C[C@H](N)C[C@@H](F)C6)cc(OC)c5n4Cc4cnn(C)c4)n(CC4CC4)c23)C1 [Example 211, methyl 3-(2-(5-((3R,5R)-3-amino-5-fluoropiperidine-1-carbonyl)-7-methoxy-1-((1-methyl-1H-pyraozl-4-yl)methyl)-1H-benzo[d]imidazol-2-yl)-1-(cyclopropylmethyl)-1H-indol-7-yl)azetidine-1-carboxylate]	26 nM
COc1cc(C(=O)N2C[C@H]3CC[C@@H]2[C@@H]3N)cc2nc(-c3cc4cccc(C5CCN(C(=O)OCc6ccccc6)C5)c4n3CC3CC3)n(C)c12 (stereo partly drawn) [Example 28, benzyl 3-(2-{5-[(1R,4R,7R)-7-amino-2-azabicyclo[2.2.1]heptane-2-carbonyl]-7-methoxy-1-methyl-1H-1,3-benzodiazol-2-yl}-1-(cyclopropylmethyl)-1H-indol-7-yl)pyrrolidine-1-carboxylate]	67 nM
COc1cc(C(=O)N2C[C@H]3CC[C@@H]2[C@@H]3N)cc2nc(-c3cc4cccc(C5CC(C(=O)N6CC(F)C6)C5)c4n3CC3CC3)n(C)c12 (single isomer, unassigned; isomer 1) [Example 200]	21 nM

same assay, conditions: human PAD4, rapid-fire mass spectrum (RFMS) assay; 5 nM hPAD4, 250 μM BAEE; read-out: hPAD4 RFMS IC50

SMILES	IC50
COc1cc(C(=O)N2C[C@H]3CC[C@@H]2[C@@H]3N)cc2nc(-c3cc4cccc(C#N)c4n3CC3CC3)n(C)c12 [Example 183, 2-(5-((1R,4R,7R)-7-amino-2-azabicyclo[2.2.1]heptane-2-carbonyl)-7-methoxy-1-methyl-1H-benzo[d]imidazol-2-yl)-1-(cyclopropylmethyl)-1H-indole-7-carbonitrile]	128 nM
COc1cc(C(=O)N2C[C@H](N)C[C@@H](F)C2)cc2nc(-c3cc4cccc(C5CCN(C(C)=O)CC5)c4n3CC3CC3)n(Cc3cnn(C)c3)c12 [Example 189, 1-(4-(2-(5-((3R,5R)-3-amino-5-fluoropiperidine-1-carbonyl)-7-methoxy-1-((1-methyl-1H-pyrazol-4-yl)methyl)-1H-benzo[d]imidazol-2-yl)-1-(cyclopropylmethyl)-1H-indol-7-yl)piperidin-1-yl)ethan-1-one]	18 nM
COc1cc(C(=O)N2C[C@H]3CC[C@@H]2[C@@H]3N)cc2nc(-c3cc4cccc(-n5cc(C6CNC6)nn5)c4n3CC3CC3)n(C)c12 [Example 110, (1R,4R,7R)-2-(2-{7-[4-(azetidin-3-yl)-1H-1,2,3-triazol-1-yl]-1-(cyclopropylmethyl)-1H-indol-2-yl}-7-methoxy-1-methyl-1H-1,3-benzodiazole-5-carbonyl)-2-azabicyclo[2.2.1]heptan-7-amine]	137 nM
COc1cc(C(=O)N2C[C@H]3CC[C@@H]2[C@@H]3N)cc2nc(-c3cc4cccc(C5CCN(C(=O)Nc6ccccc6)CC5)c4n3CC3CC3)n(C)c12 [Example 187, 4-(2-(5-((1R,4R,7R)-7-amino-2-azabicyclo[2.2.1]heptane-2-carbonyl)-7-methoxy-1-methyl-1H-benzo[d]imidazol-2-yl)-1-(cyclopropylmethyl)-1H-indol-7-yl)-N-phenylpiperidine-1-carboxamide]	18 nM
COc1cc(C(=O)N2C[C@H](N)C[C@@H](F)C2)cc2nc(-c3cc4cccc(OC)c4n3CC3CC3)n(C)c12 [Example 185, ((3R,5R)-3-amino-5-fluoropiperidin-1-yl)(2-(1-(cyclopropylmethyl)-7-methoxy-1H-indol-2-yl)-7-methoxy-1-methyl-1H-benzo[d]imidazol-5-yl)methanone]	133 nM
COc1cc(C(=O)N2C[C@H]3CC[C@@H]2[C@@H]3N)cc2nc(-c3cc4cccc(NC5CCNCC5)c4n3CC3CC3)n(C)c12 [Example 158, ((1R,4R,7R)-7-amino-2-azabicyclo[2.2.1]heptan-2-yl)(2-(1-(cyclopropylmethyl)-7-(piperidin-4-ylamino)-1H-indol-2-yl)-7-methoxy-1-methyl-1H-benzo[d]imidazol-5-yl)methanone]	69 nM
